Results from US20240109903A1, “SUBSTITUTED HETEROCYCLES FOR TREATING CANCER” (Northwestern University, priority 2022, published 2024).
Like-named read-outs stand apart in the source and are kept apart here.

Legend:
Type in all cases: cell-based
[1] = test system: SNB-19; test: NCI 60 five-dose screen SNB-19; details: Homo sapiens; for CC50: read-out: LC50 (the source's name) (converted)
[2] = test system: HCT-15; test: NCI 60 five-dose screen HCT-15; details: Homo sapiens; for CC50: read-out: LC50 (the source's name) (converted)
[3] = test system: HCC-2998; test: NCI 60 five-dose screen HCC-2998; details: Homo sapiens; for CC50: read-out: LC50 (the source's name) (converted)
[4] = test system: SK-OV-3; test: NCI 60 five-dose screen SK-OV-3; details: Homo sapiens; for CC50: read-out: LC50 (the source's name) (converted)
[5] = test system: UO-31; test: NCI 60 five-dose screen UO-31; details: Homo sapiens; for CC50: read-out: LC50 (the source's name) (converted)
[6] = test system: NCI/ADR-RES; test: NCI 60 five-dose screen NCI/ADR-RES; details: Homo sapiens; for CC50: read-out: LC50 (the source's name) (converted)
[7] = test system: HOP-62; test: NCI 60 five-dose screen HOP-62; details: Homo sapiens; for CC50: read-out: LC50 (the source's name) (converted)
[8] = test system: SF-268; test: NCI 60 five-dose screen SF-268; details: Homo sapiens; for CC50: read-out: LC50 (the source's name) (converted)
[9] = test system: NCI-H460; test: NCI 60 five-dose screen NCI-H460; details: Homo sapiens; for CC50: read-out: LC50 (the source's name) (converted)
[10] = test system: SNB-75; test: NCI 60 five-dose screen SNB-75; details: Homo sapiens; for CC50: read-out: LC50 (the source's name) (converted)
[11] = test system: SF-539; test: NCI 60 five-dose screen SF-539; details: Homo sapiens; for CC50: read-out: LC50 (the source's name) (converted)
[12] = test system: UACC-257; test: NCI 60 five-dose screen UACC-257; details: Homo sapiens; for CC50: read-out: LC50 (the source's name) (converted)
[13] = test system: HT29; test: NCI 60 five-dose screen HT29; details: Homo sapiens
[14] = test system: CAKI-1; test: NCI 60 five-dose screen CAKI-1; details: Homo sapiens; for CC50: read-out: LC50 (the source's name) (converted)
[15] = HT-29, read-out: LC50 (the source's name) (converted)

## OC1CCC(Cn2c(C(F)(F)F)cc3c(Cl)ncnc32)CC1 (centres unmarked) [NUCC-0226689]
[1]; five-dose
  GI50: 13.5 µM
  IC50: 24 µM
  IC (TGI): 26.9 µM
  CC50: 53.7 µM
[2]; five-dose
  GI50: 3.72 µM
  IC50: 4.79 µM
  IC (TGI): 20 µM
  CC50: ≥ 100 µM
[3]; five-dose
  GI50: 1.78 µM
  IC50: 3.24 µM
  IC (TGI): 3.31 µM
  CC50: 6.17 µM
[4]; five-dose
  GI50: 22.4 µM
  IC50: 67.6 µM
  IC (TGI): 100 µM
  CC50: ≥ 100 µM
[5]; five-dose
  GI50: 15.1 µM
  IC50: 38.9 µM
  IC (TGI): 66.1 µM
  CC50: ≥ 100 µM
[6]; five-dose
  GI50: 26.3 µM
  IC50: 43.7 µM
  IC (TGI): 100 µM
  CC50: ≥ 100 µM
[7]; five-dose
  GI50: 20 µM
  IC50: 42.7 µM
  IC (TGI): 57.5 µM
  CC50: ≥ 100 µM
[8]; five-dose
  GI50: 2.51 µM
  IC50: 4.47 µM
  IC (TGI): 6.92 µM
  CC50: 37.2 µM
[9]; five-dose
  GI50: 4.79 µM
  IC50: 5.5 µM
  IC (TGI): 16.6 µM
  CC50: 53.7 µM
[10]; five-dose
  GI50: 10.7 µM
  IC50: 23.4 µM
  IC (TGI): 22.9 µM
  CC50: 49 µM
[11]; five-dose
  GI50: 17.8 µM
  IC50: 32.4 µM
  IC (TGI): 38.9 µM
  CC50: 85.1 µM
[12]; five-dose
  GI50: 3.39 µM
  IC50: 7.76 µM
  IC (TGI): 14.1 µM
  CC50: 56.2 µM
[13]; HT-29, five-dose
  GI50: 15.5 µM
  IC50: 21.9 µM
  IC (TGI): 100 µM
[13]; HT-29, five-dose, read-out: LC50 (the source's name) (converted)
  CC50: ≥ 100 µM
[14]; five-dose
  GI50: 16.6 µM
  IC50: 33.1 µM
  IC (TGI): 52.5 µM
  CC50: ≥ 100 µM

## COc1cc(Cn2c(C(F)(F)F)cc3c(Cl)ncnc32)ccn1 [NUCC-0226694]
[1]
  GI50: 11.7 µM
  IC50: 21.4 µM
  IC (TGI): 24 µM
  CC50: 49 µM
[2]
  GI50: 3.09 µM
  IC50: 3.8 µM
  IC (TGI): 10 µM
  CC50: 53.7 µM
[3]
  GI50: 1.78 µM
  IC50: 3.16 µM
  IC (TGI): 3.24 µM
  CC50: 6.03 µM
[4]
  GI50: 17 µM
  IC50: 32.4 µM
  IC (TGI): 32.4 µM
  CC50: 61.7 µM
[5]
  GI50: 8.71 µM
  IC50: 18.2 µM
  IC (TGI): 24 µM
  CC50: 61.7 µM
[6]
  GI50: 15.1 µM
  IC50: 27.5 µM
  IC (TGI): 33.9 µM
  CC50: 74.1 µM
[7]
  GI50: 14.5 µM
  IC50: 27.5 µM
  IC (TGI): 29.5 µM
  CC50: 61.7 µM
[8]
  GI50: 2.45 µM
  IC50: 4.57 µM
  IC (TGI): 9.33 µM
  CC50: 41.7 µM
[9]
  GI50: 2.69 µM
  IC50: 3.31 µM
  IC (TGI): 8.13 µM
  CC50: 34.7 µM
[10]
  GI50: 1.78 µM
  IC50: 6.61 µM
  IC (TGI): 7.24 µM
  CC50: 27.5 µM
[11]
  GI50: 13.8 µM
  IC50: 24.5 µM
  IC (TGI): 26.9 µM
  CC50: 51.3 µM
[12]
  GI50: 8.51 µM
  IC50: 19.5 µM
  IC (TGI): 21.9 µM
  CC50: 49 µM
[13]; HT-29
  GI50: 14.1 µM
  IC50: 21.9 µM
  IC (TGI): 41.7 µM
[13]; [15]
  CC50: ≥ 100 µM
[14]
  GI50: 7.24 µM
  IC50: 13.8 µM
  IC (TGI): 20.4 µM
  CC50: 46.8 µM

## Fc1ccc(N2CC(Cn3c(C(F)(F)F)cc4c(Cl)ncnc43)C2)c(F)c1 [NUCC-0226695]
[1]
  GI50: 15.1 µM
  IC50: 27.5 µM
  IC (TGI): 28.8 µM
  CC50: 55 µM
[2]
  GI50: 1.78 µM
  IC50: 3.09 µM
  IC (TGI): 3.55 µM
  CC50: 7.08 µM
[3]
  GI50: 1.95 µM
  IC50: 3.47 µM
  IC (TGI): 3.47 µM
  CC50: 6.17 µM
[4]
  GI50: 14.5 µM
  IC50: 28.8 µM
  IC (TGI): 29.5 µM
  CC50: 60.3 µM
[5]
  GI50: 2.69 µM
  IC50: 5.75 µM
  IC (TGI): 10.7 µM
  CC50: 33.1 µM
[6]
  GI50: 10.2 µM
  IC50: 18.2 µM
  IC (TGI): 26.3 µM
  CC50: 69.2 µM
[7]
  GI50: 17 µM
  IC50: 32.4 µM
  IC (TGI): 33.9 µM
  CC50: 66.1 µM
[8]
  GI50: 3.16 µM
  IC50: 5.62 µM
  IC (TGI): 11.2 µM
  CC50: 47.9 µM
[9]
  GI50: 3.98 µM
  IC50: 4.68 µM
  IC (TGI): 14.5 µM
  CC50: 44.7 µM
[10]
  GI50: 12 µM
  IC50: 25.1 µM
  IC (TGI): 24.5 µM
  CC50: 51.3 µM
[11]
  GI50: 13.8 µM
  IC50: 24.5 µM
  IC (TGI): 28.2 µM
  CC50: 58.9 µM
[12]
  GI50: 3.09 µM
  IC50: 6.46 µM
  IC (TGI): 12 µM
  CC50: 42.7 µM
[13]; HT-29
  GI50: 3.47 µM
  IC50: 4.27 µM
  IC (TGI): 16.2 µM
[13]; [15]
  CC50: 97.7 µM
[14]
  GI50: 11.7 µM
  IC50: 20.4 µM
  IC (TGI): 24 µM
  CC50: 50.1 µM

## O=c1ccc(Cn2c(C(F)(F)F)cc3c(Cl)ncnc32)c[nH]1 [NUCC-0226698]
[1]
  GI50: 20.9 µM
  IC50: 39.8 µM
  IC (TGI): 58.9 µM
  CC50: ≥ 100 µM
[2]
  GI50: 2.95 µM
  IC50: 3.8 µM
  IC (TGI): 14.8 µM
  CC50: ≥ 100 µM
[3]
  GI50: 2.88 µM
  IC50: 5.25 µM
  IC (TGI): 10 µM
  CC50: 34.7 µM
[4]
  GI50: 44.7 µM
  IC50: 100 µM
  IC (TGI): 100 µM
  CC50: ≥ 100 µM
[5]
  GI50: 5.01 µM
  IC50: 14.1 µM
  IC (TGI): 19.1 µM
  CC50: 47.9 µM
[6]
  GI50: 14.1 µM
  IC50: 27.5 µM
  IC (TGI): 39.8 µM
  CC50: ≥ 100 µM
[7]
  GI50: 46.8 µM
  IC50: 100 µM
  IC (TGI): 100 µM
  CC50: ≥ 100 µM
[8]
  GI50: 10.7 µM
  IC50: 20.9 µM
  IC (TGI): 28.8 µM
  CC50: 79.4 µM
[9]
  GI50: 12 µM
  IC50: 16.6 µM
  IC (TGI): 36.3 µM
  CC50: ≥ 100 µM
[10]
  GI50: 10.7 µM
  IC50: 24 µM
  IC (TGI): 23.4 µM
  CC50: 50.1 µM
[11]
  GI50: 17.4 µM
  IC50: 32.4 µM
  IC (TGI): 40.7 µM
  CC50: 95.5 µM
[12]
  GI50: 3.16 µM
  IC50: 6.46 µM
  IC (TGI): 12.9 µM
  CC50: 75.9 µM
[13]; HT-29
  GI50: 28.8 µM
  IC50: 38 µM
  IC (TGI): 100 µM
[13]; [15]
  CC50: ≥ 100 µM
[14]
  GI50: 23.4 µM
  IC50: 42.7 µM
  IC (TGI): 100 µM
  CC50: ≥ 100 µM
